From patent publication US11365202B2, “Antimalarial compounds, process for preparation and their use for drug resistant malaria” (Council of Scientific and Industrial Research, priority 2018, dated 2022)
Read-outs that look alike come from different tables or passages of the source.

How the values were obtained:
[1] = system: P. falciparum 3D7; assay: P. falciparum growth inhibition assay, 3D7 strain; assay type: cell-based; settings: Plasmodium falciparum, read-out: EC50 on P. falciparum 3D7
Protocol: (§1) P. falciparum strain 3D7, Dd2 and 7G8 were cultured in RPMI media (Invitrogen) supplemented with 0.5% albumax and 4% haematocrit using a protocol described previously [Trager and Jensen (Science,1976; 193:673-675)]. Cultures were synchronized by repeated sorbitol treatment following Lambros and Vanderberg (J Parasitol; 1979; 65:418-420). Each growth inhibition assay was performed in triplicate and the experiment was repeated twice. Each well contained 0.5 ml of complete media [RPMI (invitrogen) with 0.5% albumax], 4% haematocrit and the parasitaemia adjusted to ˜1%; the compound added to the parasite cultures to desired final concentrations (0-100 µM) and same amount of solvent (DMSO) was added to the control wells. The cultures were allowed to grow further for 48 h. Parasite growth was assessed by DNA fluorescent dye-binding assay using SYBR green (Sigma) following Smilkstein et al (Antimicrob Agents Chemother.; 2004, 48, 1803-1806). • f) In Vitro Toxicity Assay on CHO Cells

[2] = system: A549 human cells; assay: In vitro toxicity on mammalian cell culture; assay type: cell-based; settings: for EC50: Homo sapiens, A549, in vitro toxicity
[3] = system: P. falciparum 7G8; assay: P. falciparum growth inhibition assay, 7G8 strain; assay type: cell-based; settings: Plasmodium falciparum
Protocol: as §1

[4] = system: P. falciparum Dd2; assay: P. falciparum growth inhibition assay, Dd2 strain; assay type: cell-based; settings: Plasmodium falciparum
Protocol: as §1

[5] = system: P. berghei; assay: In vivo parasiticidal assay with P. berghei mice malaria model; settings: for protection in treated group of mice: 12.5 mg/kg of body weight; for Complete Protection - Mice with complete parasite clearance / Survival after treatment: 4 doses of 12.5 mg/Kg of body weight, infected BALB/c mice
Protocol: Five groups of female BALB/c mice, 6-8 weeks of age (four mice/group) were used for testing the in vivo parsiticidal and protective efficacy of different drug treatments. Mice were injected IP with 1×10^6 P. berghei infected erythrocytes. The drug treatment was initiated 5 days after inducing parasitemia; mice in a group were given 4 doses of a compound at 12.5 mg/Kg of body weight. Control mice were given solvent alone. The parasitemia was assessed everyday in thin smears of Giemsa stained RBCs from tail blood of each mouse, by counting parasitized erythrocytes in more than 10,000 erythrocytes. Time of death of the mice in each group was also monitored.

[6] = 7G8, read-out: EC50 on P. falciparum 7G8
[7] = DD2, read-out: EC50 on P. falciparum Dd2

For `CCOP(=O)(/C=C/C(NC(=O)[C@H](Cc1ccccc1)NC(=O)[C@H](CO[C@H]1O[C@@H]2O[C@@]3(C)CC[C@H]4[C@H](C)CC[C@@H]([C@H]1C)[C@@]24OO3)NC(=O)OCc1ccccc1)c1ccccc1)OCC` (mixture of isomers) [Compound 2, Benzyl ((2S)-1-(((2S)-1-(((E)-3-(diethoxyphosphoryl)-1-phenylallyl)amino)-1-oxo-3-phenylpropan-2-yl)amino)-1-oxo-3-(((3R,5aS,6R,8aS,9R,10S,12R,12 aR)-3,6,9-trimethyldeca hydro-12H-3,12-epoxy[1,2]dioxepino[4,3-i]isochromen-10-yl)oxy)propan-2-yl)carbamate], the EC50 ([1]; 3D7, 48 h) was 2.7 nM, the EC50 [2] was 14600 ± 175 nM and the EC50 [3, 6] was 0.47 nM. The EC50 [4, 7] was 1.9 nM.

`CCOP(=O)(/C=C/C(NC(=O)[C@H](CC(C)C)NC(=O)[C@@H]1C[C@@H](O[C@H]2O[C@@H]3OC4(C)CC[C@H]5[C@H](C)CC[C@@H]([C@H]2C)[C@@]35OO4)CN1C(=O)OCc1ccccc1)c1ccccc1)OCC` (stereo in doubt) [Compound 5, Benzyl (2S,4R)-2-(((2S)-1-(((E)-3-(diethoxyphosphoryl)-1-phenylallyl)amino)-4-methyl-1-oxopentan-2-yl)carbamoyl)-4-(((3R,5aS,6R,8aS,9R,10S,12R,12aR)-3,6,9-trimethyldeca hydro-12H-3,12-epoxy[1,2]dioxepino[4,3-i]isochromen-10-yl)oxy)pyrrolidine-1-carboxylate] was tested, and the EC50 ([1]; 3D7, 48 h) was 2.57 nM, the “in vitro toxicity on A549 human cells (in words)” value [2] was “non-toxic” and the EC50 [2] was 1280 ± 156 nM. For the same compound, the EC50 [3, 6] was 1.2 nM, the EC50 [4, 7] was 5.5 nM and the “protection in treated group of mice” value [5] was 100%. For the same compound, the “Complete Protection - Mice with complete parasite clearance” value (from here on “Complete Protection - Mice”) [5] was 100% of treated mice and the Survival after treatment [5] was over 60 days.

`C[C@@H]1CC[C@H]2[C@@H](C)C(=O)O[C@@H]3O[C@@]4(C)CC[C@@H]1[C@]32OO4` [Artemisinin, reference compound] gave an EC50 ([1]; 3D7, chloroquine-sensitive strain, in vitro culture, 48 h) of about 27 nM, an EC50 ([3]; 7G8, Chloroquine and Pyrimethamine resistant strain, in vitro culture, read-out: EC50 on P. falciparum 7G8) of about 18 nM and an EC50 ([4]; DD2, Chloroquine, Pyrimethamine and Mefloquine resistant strain, in vitro culture, read-out: EC50 on P. falciparum Dd2) of about 15 nM. For the same compound, the “Complete Protection - Mice” value [5] was 0% of treated mice and the Survival after treatment [5] was 15 to 25 days.

In the case of `CCOP(=O)(/C=C/C(NC(=O)[C@H](CC(C)C)NC(=O)[C@H](CO[C@H]1O[C@@H]2OC3(C)CC[C@H]4[C@H](C)CC[C@@H]([C@H]1C)[C@@]24OO3)NC(=O)OCc1ccccc1)c1ccccc1)OCC` (stereo in doubt) [Compound 3, Benzyl ((2S)-1-(((2S)-1-(((E)-3-(diethoxyphosphoryl)-1-phenylallyl)amino)-4-methyl-1-oxopentan-2-yl)amino)-1-oxo-3-(((3R,5aS,6R,8aS,9R,10S,12R,12aR)-3,6,9-trimethyldeca hydro-12H-3,12-epoxy[1,2]dioxepino[4,3-i]isochromen-10-yl)oxy)propan-2-yl)carbamate], the EC50 ([1]; 3D7, 48 h) is reported as 3.3 nM, the “in vitro toxicity on A549 human cells (in words)” value [2] is reported as “non-toxic” and the EC50 [2] is reported as 3820 ± 161 nM. The EC50 [3, 6] was 0.23 nM, the EC50 [4, 7] was 3.5 nM and the “protection in treated group of mice” value [5] was 100%. The “Complete Protection - Mice” value [5] was 100% of treated mice and the Survival after treatment [5] was over 60 days.
